Laboratory results taken from US20090240049A1, “Purification of air sensitive steroids” (priority 2008, published 2009).
Values belong to the molecule of their own block, whether it stands above or below them.

Test: Stability of Budesonide on storage, 21-aldehyde and Budesonide content by HPLC
Type: physicochemical
Settings: for Budenoside HPLC Area % / 21 Aldehyde HPLC Area %: double plastic containers
Experimental: The amount of air-sensitive steroid and/or its 21 aldehyde impurity were determined using HPLC. Common HPLC methods for these steroids and their 21-aldehyde impurities may be found in various monographs see for example for Budesonide and its 21-aldehyde impurity a HPLC method is reported in USP31-NF26, page 1565 (detection limit 0.02%), for Fluocinolone acetonide a HPLC method in European Pharmacopoeia (EP) 6.0, page 1915, and for Methylprednisolone a HPLC method in European Pharmacopoeia (EP) 6.0, page 2393.
Budenoside from three production lots prepared in stainless steel reactors was compared to a lot of Budenoside produced in such a reactor and purified with cysteine according to example 5. All samples were stored in double plastic containers. The samples that were not treated with cysteine were kept at a temperature of 25±2° C. and relative humidity of 60%. The sample treated with cysteine was stored at a temperature that varied from about 0° C. to about 40° C. with no humidity control. As is shown in the table below the amount of the 21-aldehyde impurity in the Budenoside purified according to example 5 is less than 0.07% even after 6 years of storage. The aldehyde content of all samples was measured by HPLC.

[1] = lot purified with cysteine, stored at about 0° C. to about 40° C., no humidity control, 6 years
[2] = production lot 1 of 3 (c1-c2), not treated with cysteine, 25±2° C., 60% relative humidity, 2 years
[3] = production lot 1 of 3 (c1-c2), not treated with cysteine, 25±2° C., 60% relative humidity, 5 years
[4] = production lot 2 of 3 (c3-c4), not treated with cysteine, 25±2° C., 60% relative humidity, 2 years
[5] = production lot 2 of 3 (c3-c4), not treated with cysteine, 25±2° C., 60% relative humidity, 5 years
[6] = production lot 3 of 3 (c5-c6), not treated with cysteine, 25±2° C., 60% relative humidity, 2 years
[7] = production lot 3 of 3 (c5-c6), not treated with cysteine, 25±2° C., 60% relative humidity, 5 years

amount of the 21-aldehyde impurity (after 6 years of storage at about 0° C. to about 40° C., no humidity control): less than 0.07% | Budenoside HPLC Area % (lot purified with cysteine, stored at about 0° C. to about 40° C., no humidity control, 0 years): 99.76 HPLC Area % | 21 Aldehyde HPLC Area % [1]: 0.02 HPLC Area % | Budenoside HPLC Area % [1]: 99.61 HPLC Area %
Structure (SMILES): CCCC1O[C@@H]2C[C@H]3[C@@H]4CCC5=CC(=O)C=C[C@]5(C)[C@H]4[C@@H](O)C[C@]3(C)[C@]2(C(=O)CO)O1 (stereo partly shown) [Budesonide]

Budenoside HPLC Area % (production lot 1 of 3 (c1-c2), not treated with cysteine, 25±2° C., 60% relative humidity, 0 years): 99.0 HPLC Area % | Budenoside HPLC Area % (production lot 1 of 3 (c1-c2), not treated with cysteine, 25±2° C., 60% relative humidity, 1 year): 98.8 HPLC Area % | 21 Aldehyde HPLC Area % [2]: 0.1 HPLC Area % | Budenoside HPLC Area % [2]: 98.7 HPLC Area % | 21 Aldehyde HPLC Area % [3]: 0.2 HPLC Area % | Budenoside HPLC Area % [3]: 98.4 HPLC Area % | Budenoside HPLC Area % (production lot 2 of 3 (c3-c4), not treated with cysteine, 25±2° C., 60% relative humidity, 0 years): 99.4 HPLC Area % | Budenoside HPLC Area % (production lot 2 of 3 (c3-c4), not treated with cysteine, 25±2° C., 60% relative humidity, 1 year): 98.9 HPLC Area % | 21 Aldehyde HPLC Area % [4]: 0.6 HPLC Area % | Budenoside HPLC Area % [4]: 98.5 HPLC Area % | 21 Aldehyde HPLC Area % [5]: 0.9 HPLC Area % | Budenoside HPLC Area % [5]: 97.8 HPLC Area % | Budenoside HPLC Area % (production lot 3 of 3 (c5-c6), not treated with cysteine, 25±2° C., 60% relative humidity, 0 years): 99.2 HPLC Area % | Budenoside HPLC Area % (production lot 3 of 3 (c5-c6), not treated with cysteine, 25±2° C., 60% relative humidity, 1 year): 99.0 HPLC Area % | 21 Aldehyde HPLC Area % [6]: <0.1 HPLC Area % | Budenoside HPLC Area % [6]: 99.1 HPLC Area % | 21 Aldehyde HPLC Area % [7]: <0.2 HPLC Area % | Budenoside HPLC Area % [7]: 98.2 HPLC Area %
Structure (SMILES): CCCC1O[C@@H]2C[C@H]3[C@@H]4CCC5=CC(=O)C=C[C@]5(C)[C@H]4[C@@H](O)C[C@]3(C)[C@]2(C(=O)CO)O1 (stereo partly shown) [Budenoside, Budesonide]
